According to patent US12702715B2, “Targeted RNA degradation allows precision repurposing of protein-targeted small molecule medicines to RNA” (University of Florida Research Foundation, Incorporated, priority 2020, dated 2026):
Entries after “also recorded” stand apart in the source; their conditions may differ.

Key:
[1] = tested on: 3×2 RNA internal loop library (3×2 ILL); assay: AbsorbArray 2DCS selection with Inforna fitness analysis; type: binding, human; conditions: Zobs>8
Method: Construction of AbsorbArray Small Molecule Microarrays. Microarrays were constructed as previously reported^4. Briefly, a 1% agarose solution was poured onto a glass slide and dried on the benchtop. A 200 nL aliquot of 68 hit compounds (10 mM in DMSO) was pinned onto the array from a 384-well plate using Biomek NXP Laboratory Automation Workstation. Slides were then dried overnight to obtain a thin, invisible agarose layer. Slides were washed three times with 1×PBST^5 and then three times with nanopure water. Slides were dried completely in the air before RNA selection, completed by Two-Dimensional Combinatorial Screening (2DCS).
RNA Selection and Screening by 2DCS. The 3×2 RNA ILL was 5′-end ^32P-labeled as previously described^7 and 2DCS selections were completed as previously described 4. All oligonucleotides were folded as described in the “Solution-based Dye Displacement Assay” section. Small molecule microarrays were pre-equilibrated by 3 mL 1× AB2 for 5 min. After removing the pre-equilibration buffer, 5′-end labeled folded 3×2 RNA ILL (~50,000 cpm) was added in 3 mL 1× AB2 containing 1 mM MgCl2 in the presence of competitor oligonucleotides (100 μM each). The oligonucleotide solution was evenly distributed across the microarray surface with a custom-cut piece of Parafilnm. After incubating for 30 min at room temperature, the Parafilm was removed, and the slide was washed gently by submersion in 1× AB2 for 30 s. This washing step was repeated three additional times, and the array was dried on the benchtop for 1 h. […] To harvest and collect the bound RNAs from the ILL, 1 μL of nanopure water was added to each spot. After 30 s, the water drop was absorbed into agarose gel, hydrating it such that it could be excised with a toothpick. The RNAs were eluted from the agarose by simple incubation with water, and then treated with RNase-free DNase I. A unique barcode for each small molecule was installed by reverse transcription (RT). Barcoded RNAs were amplified by PCR, purified, and identified by next-generation sequencing (NGS) using an Ion Proton deep sequencer using PI chips (60-80 million reads) as previously described^2.

[2] = molecular target: T1, FLT3 (Homo sapiens, UniProt P36888); assay: Cellular Chem-CLIP/C-Chem-CLIP to study occupancy of an RTK; type: cell-based; conditions: 0.01-10 μM pre-treatment
T1 construct: endogenous in cells; host or cells: MDA-MB-231
T1 sequence (P36888 27-993): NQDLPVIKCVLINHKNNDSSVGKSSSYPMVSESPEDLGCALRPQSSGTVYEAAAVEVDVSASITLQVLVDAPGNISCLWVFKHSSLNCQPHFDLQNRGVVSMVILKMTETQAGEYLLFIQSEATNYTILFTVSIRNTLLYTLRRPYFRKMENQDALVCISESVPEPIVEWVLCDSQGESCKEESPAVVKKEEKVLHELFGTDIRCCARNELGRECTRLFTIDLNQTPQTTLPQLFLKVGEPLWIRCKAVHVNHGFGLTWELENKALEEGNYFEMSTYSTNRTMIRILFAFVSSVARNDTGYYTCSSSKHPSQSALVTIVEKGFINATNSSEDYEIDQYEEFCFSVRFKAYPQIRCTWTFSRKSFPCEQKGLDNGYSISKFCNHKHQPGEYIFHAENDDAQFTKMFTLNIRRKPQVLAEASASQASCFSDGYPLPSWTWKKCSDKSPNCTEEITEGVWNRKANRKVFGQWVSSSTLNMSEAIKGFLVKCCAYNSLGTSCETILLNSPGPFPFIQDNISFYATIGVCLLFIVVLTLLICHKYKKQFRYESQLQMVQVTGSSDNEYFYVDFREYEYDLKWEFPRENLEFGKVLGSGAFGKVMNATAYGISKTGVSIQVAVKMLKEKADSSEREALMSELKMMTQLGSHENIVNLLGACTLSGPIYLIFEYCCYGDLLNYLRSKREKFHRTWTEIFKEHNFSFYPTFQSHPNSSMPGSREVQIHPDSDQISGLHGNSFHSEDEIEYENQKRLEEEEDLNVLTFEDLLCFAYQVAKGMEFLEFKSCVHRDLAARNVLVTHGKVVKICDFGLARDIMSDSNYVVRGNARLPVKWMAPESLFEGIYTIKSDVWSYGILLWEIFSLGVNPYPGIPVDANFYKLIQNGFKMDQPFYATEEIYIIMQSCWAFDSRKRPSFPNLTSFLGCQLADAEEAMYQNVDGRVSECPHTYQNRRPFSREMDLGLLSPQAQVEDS
Method: Cellular Chem-CLIP/C-Chem-CLIP to Study Occupancy of an RTK. Compound treatment and isolation of cells was completed as described for cellular occupancy studies of pre-miR-21. Total protein was extracted and concentration determined as described in the “Western Blotting” section. Approximately 1 mg of total protein was used for following pull-down experiments, using a protocol adapted from a previously published method 8. Protein cross-linked to the probe were clicked to disulfide biotin azide as described above except the amount of each reagents was doubled (20 μL/sample). Then, to the mixture was added ice-cold, 4:1 mixture of methanol/chloroform (2.5 mL) followed by 1 mL of ice-cold 1×DPBS. The mixture was centrifuged at 5000×g for 10 min at 4° C. to fractionate a protein interphase between organic and aqueous layers. […] The washed protein mixture was centrifuged at 5000×g for 10 min at 4° C. to pellet the protein. The pellet was dissolved in H2O, and to this solution was added 20 μLL streptavidin beads for 30 min at room temperature. The solution was removed, and the beads were washed once with 0.2% SDS in 1×DPBS, twice with detergent-free 1×DPBS and twice with nanopure water. After these washing steps, protein was cleaved as described above. The supernatant was collected, and protein concentration was determined with Pierce Micro BCA Protein Assay kit. […] Sample preparation was completed as described above for cellular Chem-CLIP studies. Western blotting was performed on total protein (10 μg) before or after pull-down, indicated as “Input” or “Output”, as described in Western Blotting.

[3] = tested on: pre-miR-21; assay: RT-qPCR of pre-miR-21 levels in MDA-MB-231 cells; type: cell-based, human; conditions: MDA-MB-231, RT-qPCR
Method: Cell Culture. Cells were cultured at 37° C. and 5% CO2. MDA-MB-231 cells (HTB-26, ATCC) were cultured in RMPI 1640 medium with L-glutamine & 25 mM HEPES supplemented with 1× Antibiotic/Antimycotic solution (Corning) and 10% FBS. MCF-10A cells (CRL-10317, ATCC) were cultured in 1×DMEM/F12 50/50 with L-glutamine & 15 mM HEPES (Corning) supplemented with 20% FBS, 1× Antibiotic/Antimycotic solution, 20 ng/mL human epidermal growth factor (Pepro Tech, Inc.), 10 μg/mL insulin (Sigma-Aldrich), and […] hydrocortisone (Pfaltz & Bauer). For compound treatment, compound stocks either in DMSO or water were diluted in growth medium and added to cells for the indicated time. Plasmid DNA to overexpress pre-miR-21 in pcDNA 3.1 (Addgene 21114) or a plasmid DNA encoding the pre-miR-21 mutant (custom purchased from GenScript USA, Inc.) was transfected with jetPRIME per the manufacturer's protocol. After transfection, the medium was replaced with growth medium containing the compound of interest, prepared as described above. The RNase L-targeting siRNA or a control siRNA was transfected with Lipofectamine RNAiMAX reagent (Invitrogen) per the manufacturer's protocol.
RNA Isolation and Quantitative Real-Time PCR (RT-qPCR). After treatment, total RNA was extracted and purified by using the Zymo Quick-RNA mini prep kit per the manufacturer's protocol. Reverse Transcription (RT) for mature miRNAs as well as pri- and pre-miR-21 was completed on 200 ng of RNA by using a miScript 11 RT kit (QIAGEN) according to manufacturer's protocol. RT of mRNAs was performed by using QScript kit (Quanta Bio). An Applied Biosystems QS5 384-well PCR system was used to complete qPCR experiments using Power Sybr Green Mater Mix (Life Technologies) as described previously^6.

[4] = molecular target: T2, RNase L / pre-miR-21 ternary complex (Homo sapiens, UniProt Q05823); assay: RNase L immunoprecipitation; type: cell-based; conditions: 1 μM, MDA-MB-231
T2 construct: endogenous in cells; host or cells: MDA-MB-231
T2 sequence (Q05823 1-741): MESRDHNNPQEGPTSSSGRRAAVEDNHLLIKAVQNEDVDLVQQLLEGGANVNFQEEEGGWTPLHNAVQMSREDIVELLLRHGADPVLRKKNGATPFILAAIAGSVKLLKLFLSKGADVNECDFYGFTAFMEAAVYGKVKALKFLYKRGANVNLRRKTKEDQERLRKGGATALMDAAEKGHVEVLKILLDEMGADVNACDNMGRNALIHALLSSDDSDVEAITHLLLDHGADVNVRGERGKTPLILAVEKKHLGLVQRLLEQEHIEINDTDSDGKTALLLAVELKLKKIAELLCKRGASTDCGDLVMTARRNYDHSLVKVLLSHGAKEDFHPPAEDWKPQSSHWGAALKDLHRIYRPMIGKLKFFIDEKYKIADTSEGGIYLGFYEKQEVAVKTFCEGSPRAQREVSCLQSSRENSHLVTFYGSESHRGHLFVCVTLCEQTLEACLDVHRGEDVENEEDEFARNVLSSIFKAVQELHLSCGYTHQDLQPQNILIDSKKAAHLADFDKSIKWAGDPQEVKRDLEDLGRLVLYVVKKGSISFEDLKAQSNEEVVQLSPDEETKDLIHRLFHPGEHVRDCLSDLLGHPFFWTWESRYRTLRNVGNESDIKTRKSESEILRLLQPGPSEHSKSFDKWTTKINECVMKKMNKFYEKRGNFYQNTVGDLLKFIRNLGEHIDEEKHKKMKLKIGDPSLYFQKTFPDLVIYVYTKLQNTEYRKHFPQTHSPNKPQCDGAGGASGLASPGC
Method: RNase L Immunoprecipitation. MDA-MB-231 cells were seed in 6-well plates and were treated with vehicle, 4 (1 μM) or 5 (1 μM) when the cells reached ~70% confluency. After 48 h, the cells were harvested and lysed in 100 μL of M-PER buffer containing protease inhibitor and RNaseOUT recombinant Ribonuclease Inhibitor (Invitrogen) on ice for 20 min. The lysate was centrifuged at 13,000×g for 15 min, and the supernatants were incubated with Dynabeads Protein A (Life Technologies) bound to RNase L mouse primary antibody or β-actin mouse primary antibody overnight at 4° C. After incubation, the beads were washed with 1×DPBS containing 0.02% (v/v) Tween-20, and RNA was extracted by using a miRNeasy Mini Kit (Qiagen) per the manufacturer's instructions. RT-qPCR was performed as described above. Relative RNA levels were determined by ΔΔCt method by normalizing to 18S rRNA levels. Normalized fold change was calculated as previously described^6.

Row | Compound | number of binding RNA motifs [1] | competition of FLT3 enrichment by probe 4 [2] | pre-miR-21 levels [3] | enrichment of pre-miR-21 in RNase L immunoprecipitation [4]
1 | COc1ccc(NC(=O)[C@H](CCCCN)NC(=O)c2cc(NC(=O)[C@H](CCCCN)NC(=O)c3cc(NC(=O)[C@H](CCCCN)NC(=O)c4cc(NC(=O)[C@@H](N)CCCCN)ccc4OC)ccc3OC)ccc2OC)cc1C(N)=O [Delparantag] | 284 | – | – | –
2 | NCCCNc1ccc2c3c(nn2CCNCCO)-c2c(O)ccc(O)c2C(=O)c13 [Piroxantrone] | 278 | – | – | –
3 | CN1c2ccccc2Sc2ccc(CC(=O)O)cc21 [Metiazinic Acid] | 274 | – | – | –
4 | CCCNC(=O)NCCN1CCN(c2ccc3[nH]c(-c4c(N)c5c(F)cccc5[nH]c4=O)nc3c2)CC1 [Compound 8] | – | competed off | – | –
5 | CCOC(=O)C1=C(Nc2ccccc2)S/C(=C\c2ccc(O)c(OCCOCCOCCOCCNC(=O)NCCN3CCN(c4ccc5[nH]c(-c6c(N)c7c(F)cccc7[nH]c6=O)nc5c4)CC3)c2)C1=O [Compound 7] | – | competed off; also recorded: between that observed for 1 and 2 | increasing pre-miR-21 levels | not
6 | CCOC(=O)C1=C(Nc2ccccc2)S/C(=C\c2ccc(OCCOCCOCCOCCNC(C)=O)c(O)c2)C1=O [Compound 6] | – | – | had no effect | not
